Values of other authors in patent publication US8658200B2, “Flavoring of drug-containing chewing gums” (McNeil-PPC, Inc., priority 2005, dated 2014).

Tested on: adult

CN1CCCC1c1cccnc1 (stereo not shown) [nicotine, 3-(1-methyl-2-pyrrolidinyl)-pyridine]
amount of nicotine able to kill an adult: Approximately 40 milligrams
